In the CheMixHub viscosity set:

Experiment: xn = mol fraction of the nth substance listed

CC(C)CC(C)(C)C + c1ccccc1
308.15 K, 101 kPa
Conditions | viscosity [mPa·s]
x1 = 0.0565 | 0.5093
x1 = 0.1062 | 0.4873
x1 = 0.1666 | 0.4676
x1 = 0.2409 | 0.4496
x1 = 0.3214 | 0.436
x1 = 0.412 | 0.4255
x1 = 0.5227 | 0.4188
x1 = 0.6688 | 0.4174
x1 = 0.8154 | 0.423

CCCCCCO + CC#N
viscosity [mPa·s], 101 kPa
Conditions | 298.15 K | 303.15 K | 308.15 K
x2 = 0.1095 | 3.187 | 2.576 | 2.165
x2 = 0.2173 | 2.358 | 2.078 | 1.839
x2 = 0.2885 | 1.966 | 1.831 | 1.573
x2 = 0.3844 | 1.55 | 1.386 | 1.233
x2 = 0.5121 | 1.109 | 1.004 | 0.913
x2 = 0.627 | 0.84 | 0.766 | 0.704
x2 = 0.7147 | 0.676 | 0.611 | 0.57
x2 = 0.7903 | 0.545 | 0.513 | 0.483
x2 = 0.8533 | 0.47 | 0.445 | 0.419
x2 = 0.9086 | 0.415 | 0.395 | 0.376
x2 = 0.9558 | 0.377 | 0.36 | 0.343

Cc1cn([C@H]2CC(O)[C@@H](CO)O2)c(=O)[nH]c1=O (some centres not stated) + O
viscosity [mPa·s], 101.3 kPa
Conditions | x1 = 9.02e-05 | x1 = 0.000159 | x1 = 0.0002266 | x1 = 0.0003081 | x1 = 0.0004541 | x1 = 0.0004775
298.15 K | 0.893 | 0.894 | 0.895 | 0.897 | 0.899 | 0.9
308.15 K | 0.721 | 0.722 | 0.723 | 0.724 | 0.726 | 0.727
318.15 K | 0.598 | 0.598 | 0.599 | 0.6 | 0.602 | 0.602

CC(=O)CC(C)C + CCCCCCO
viscosity [mPa·s], 100 kPa
Conditions | x1 = 0.0851 | x1 = 0.1723 | x1 = 0.2541 | x1 = 0.3619 | x1 = 0.4246 | x1 = 0.5566 | x1 = 0.6612 | x1 = 0.7441 | x1 = 0.8559 | x1 = 0.9468
293.15 K | 3.74 | 2.71 | 2 | 1.37 | 1.12 | 0.78 | 0.65 | 0.6 | 0.56 | 0.56
303.15 K | 2.94 | 2.14 | 1.62 | 1.13 | 0.93 | 0.66 | 0.53 | 0.49 | 0.48 | 0.49
313.15 K | 2.32 | 1.79 | 1.38 | 0.96 | 0.79 | 0.54 | 0.43 | 0.41 | 0.41 | 0.43
323.15 K | 1.88 | 1.48 | 1.15 | 0.8 | 0.66 | 0.45 | 0.35 | 0.33 | 0.34 | 0.37

CN(C)C(=N)NC(=N)N.Cl + O
viscosity [mPa·s]
Conditions | 298.15 K | 303.15 K | 308.15 K | 313.15 K | 318.15 K
100 kPa, x1 = 0.00018 | 0.894 | – | – | – | –
100 kPa, x1 = 0.0003598 | 0.896 | 0.803 | – | – | –
100 kPa, x1 = 0.0005412 | 0.898 | 0.805 | 0.726 | – | –
100 kPa, x1 = 0.0007212 | 0.9 | – | – | 0.663 | –
100 kPa, x1 = 0.0009 | – | – | – | – | 0.607
100 kPa, x1 = 0.0009014 | 0.902 | 0.809 | 0.73 | 0.665 | –
100 kPa, x1 = 0.001079 | 0.904 | 0.811 | 0.732 | 0.667 | –
100 kPa, x1 = 0.001259 | 0.906 | – | 0.734 | 0.669 | –
100 kPa, x1 = 0.001439 | 0.908 | 0.815 | 0.736 | 0.671 | –
100 kPa, x1 = 0.001619 | 0.91 | 0.817 | 0.738 | 0.673 | –
100 kPa, x1 = 0.001798 | 0.912 | 0.819 | 0.74 | 0.675 | –
100 kPa, x1 = 0.0018 | – | – | 0.739 | 0.675 | 0.613
100 kPa, x1 = 0.0027 | – | – | 0.75 | 0.68 | 0.622
101 kPa, x1 = 0.00011 | – | – | 0.721 | – | 0.597
101 kPa, x1 = 0.000241 | – | – | 0.723 | – | 0.598
101 kPa, x1 = 0.000481 | – | – | 0.726 | – | 0.6
101 kPa, x1 = 0.000722 | 0.903 | – | 0.729 | – | 0.601
101 kPa, x1 = 0.000965 | 0.907 | – | 0.732 | – | 0.604
101 kPa, x1 = 0.00121 | 0.91 | – | 0.735 | – | 0.606

CCC12CC3CC(CC(C3)C1)C2 + CCCCCCCCCCC
viscosity [mPa·s], 100 kPa
Conditions | x1 = 0.1012 | x1 = 0.2042 | x1 = 0.3018 | x1 = 0.4017 | x1 = 0.5014 | x1 = 0.6059 | x1 = 0.7013 | x1 = 0.8052 | x1 = 0.8999
293.15 K | 1.348 | 1.47 | 1.631 | 1.86 | 2.179 | 2.592 | 3.18 | 4.01 | 5.036
298.15 K | 1.203 | 1.334 | 1.489 | 1.692 | 1.93 | 2.302 | 2.77 | 3.47 | 4.339
303.15 K | 1.108 | 1.225 | 1.366 | 1.546 | 1.764 | 2.091 | 2.514 | 3.129 | 3.854
308.15 K | 1.025 | 1.133 | 1.271 | 1.418 | 1.601 | 1.883 | 2.235 | 2.77 | 3.404
313.15 K | 0.953 | 1.049 | 1.173 | 1.311 | 1.472 | 1.728 | 2.039 | 2.509 | 3.078
318.15 K | 0.887 | 0.983 | 1.092 | 1.22 | 1.377 | 1.6 | 1.882 | 2.284 | 2.781
323.15 K | 0.829 | 0.92 | 1.013 | 1.135 | 1.272 | 1.472 | 1.723 | 2.094 | 2.512

CCOCC + CCCO
101 kPa
Conditions | viscosity [mPa·s]
298.15 K, x1 = 0.09896 | 1.404
298.15 K, x1 = 0.1949 | 1.024
298.15 K, x1 = 0.3032 | 0.753
298.15 K, x1 = 0.4198 | 0.562
298.15 K, x1 = 0.5476 | 0.427
298.15 K, x1 = 0.6864 | 0.336
298.15 K, x1 = 0.8353 | 0.272
303.16 K, x1 = 0.07 | 1.682
303.16 K, x1 = 0.15 | 1.591
303.16 K, x1 = 0.25 | 1.417
303.16 K, x1 = 0.37 | 1.237
303.16 K, x1 = 0.47 | 0.8879
303.16 K, x1 = 0.59 | 0.6163
303.16 K, x1 = 0.73 | 0.4922
303.16 K, x1 = 0.78 | 0.3645
303.16 K, x1 = 0.92 | 0.2804
